Patent publication US9079936B2, “Derivatives of APF and methods of use” (University of Maryland, Baltimore, priority 2007, dated 2015)
Entries after “also recorded” stand apart in the source; their conditions may differ.

Experiments:
IC/PBS cell monolayers = experiment: Paracellular permeability assay (14C-mannitol and 3H-inulin flux, Transwell); type: cell-based, human; conditions: IC/PBS cells, 16 or 30 days treatment
Method: Flux assays were performed using 12-mm Transwell culture plates (Corning Incorporated, Corning, N.Y.), as previously described (Keay et al., 2000). Cells were plated at 4×10^5 cells/cm^2 on the insert and grown in DMEM-F12 medium containing 10% heat-inactivated FBS, 1% antibiotic solution, 1% L-glutamine, 0.25 units/ml insulin (all from Sigma, St. Louis, Mo.), and 5 ng/ml hEGF (R & D Systems, Minneapolis, Minn.) to establish tight monolayers. On day 2, the medium was changed to MEM (GIBCO/Invitrogen) containing 1% antibiotic/antimycotic solution and 1% L-glutamine (Sigma).
Two different membrane impermeable molecules, [^14C]-mannitol (molecular weight: 184 Daltons) and [3H]-inulin (molecular weight: 5,200 Daltons), served as paracellular tracers. At the beginning of the flux assay, both sides of the bathing wells of Transwell filters were replaced with fresh medium containing either 5 mM unlabeled mannitol or 0.5 mM unlabeled inulin. Each tracer was added at a final concentration of 3.6 nM for [^14C]-mannitol and 0.36 nM for [^3H]-inulin to the apical bathing wells. The basal bathing well contained the same medium as the apical compartment but without tracers. Flux assays were performed at 37° C.; basal medium was collected at 0.5-6 hrs after addition of [^14C]-mannitol or [^3H]-inulin, and the amount of radioactivity determined using a Beckman LS 5000 scintillation counter. Results were expressed as percentage of total counts for each tracer.
(§1) For the permeability assay, the percentage of total counts in the basal medium was determined in four experiments (using different IC/PBS cell donors), and expressed as mean±standard deviation. Crossover point analysis was performed for qRT-PCR data, and expression of each gene was quantified relative to β-actin; this value was expressed as mean±standard error of the mean for duplicate runs performed on two separate occasions. ^3H-thymidine incorporation was determined in triplicate on two separate occasions, and the CPM expressed as mean±standard deviation.

[1] = tested on: tight junction protein gene expression in IC/PBS cells; experiment: qRT-PCR for tight junction gene expression; type: cell-based, human; conditions: 16 and 30 day treatment, relative to β-actin
Method: Total RNA was extracted from IC/PBS and normal control epithelial cell explants using the RNEasy Plus Mini Kit (Qiagen) according to the manufacturer's protocol. Quantitative real time RT-PCR for tight junction gene expression was performed using Quantitect Primers (Qiagen), SYBR Green RT-PCR kit reagents (Qiagen), and a Roche 480 Light-Cycler. Samples were tested in triplicate runs, and specific mRNA levels quantified and compared to mRNA levels for β-actin using LightCycler 480 real-time PCR analysis software (version 1.5).
as §1

[2] = tested on: tight junction proteins in IC/PBS cells; experiment: Immunofluorescence confocal microscopy of tight junction proteins; type: cell-based, human; conditions: IC/PBS cell explants treated for 9 days
Method: For immunofluorescence, cells were fixed using ethanol/acetone (1:1) for 15 minutes at room temperature, washed 3 times with PBS and incubated with fluorescein isothiocyanate (FITC) labeled mouse monoclonal anti-ZO-1 (5 μg/ml); or unlabeled mouse monoclonal anti-occludin (5 μg/ml) or anti-claudin 4 (3 μg/ml); or unlabeled rabbit polyclonal anti-claudin 1 (3 μg/ml), anti-claudin 8 (8 μg/ml), or anti-claudin 12 (5 μg/ml) antibodies (all from Zymed, South San Francisco, Calif.) diluted in PBS for 2 hours at 37 C. Cells incubated with unlabeled mouse monoclonal primary antibodies were then washed 3 times with PBS and further incubated with FITC-labeled secondary goat anti-mouse IgG antibody (Zymed) diluted in PBS, while cells incubated with unlabeled rabbit polyclonal primary antibodies were washed and further incubated for 2 hours at 37 C with goat anti-rabbit IgG (Zymed) diluted in PBS. Following an additional 5 washes with PBS, the cells were examined using an LSM510 confocal laser scanning microscope (Carl Zeiss, Oberkochen, Germany). Negative controls for the method included cells incubated without primary and secondary antibodies as well as cells incubated with secondary antibody alone.

[3] = tested on: APF activity in normal bladder epithelial cells; experiment: Inhibition of APF antiproliferative activity in APF-treated normal bladder cells (3H-thymidine incorporation); type: cell-based, human; conditions: pretreatment with derivative, then active synthetic APF (as-APF), IC/PBS and/or normal bladder cells
Method: (§2) IC/PBS cells were incubated with varying concentrations of GalGalNAc-TV(D-proline)AAVVVA (SEQ ID NO:11), wherein such glycosylated peptide is SEQ ID NO:30). Cell proliferation was determined by ^3H-thymidine incorporation; gene expression by quantitative RT-PCR; specific protein expression by Western blot analysis; tight junction formation by confocal immunofluorescence microscopy; and paracellular permeability by ^14C-mannitol and ^3H-inulin flux between confluent cells on Transwell plates. Significance of the difference in mean values between groups was determined by an analysis of variance for each assay.
as §2, with “a derivative shown to inhibit APF activity in normal bladder cells—GalGalNAc-TV-(D-proline)-AAVVVA” for “GalGalNAc-TV(D-proline)AAVVVA”, “NO: 11),” for “NO:11),”, “RT-PCR;” for “RT-PCR; specific protein expression by Western blot analysis;”, “^14H-inulin” for “^3H-inulin”
(§3) Cell proliferation was measured by ^3H-thymidine incorporation into explanted normal human bladder epithelial cells, as previously described (Keay et al., 2000; Keay et al., 2001; Keay et al., 2004; Keay et al., 2003; Saitoh et al., 2001). Significant inhibition of ^3H-thymidine incorporation was defined as a mean decrease in counts per minute of greater than 2 standard deviations from the mean of control cells for each plate.

[4] = tested on: bladder epithelial cells from IC/PBS patients; experiment: IC/PBS cell proliferation (3H-thymidine incorporation); type: cell-based, human; conditions: for effect on IC cell proliferation: 0.25 uM, 9, 16, 23 and 30 day treatment (Example 12)
Method: as §2
Study of the effect of APF proline on IC cell proliferation (as measured by thymidine incorporation) following 9, 16, 23, and 30 day treatment with 0.25 uM of the agent.
as §2, with “a derivative shown to inhibit APF activity in normal bladder cells—GalGalNAc-TV-(D-proline)-AAVVVA” for “GalGalNAc-TV(D-proline)AAVVVA”, “NO: 11),” for “NO:11),”, “RT-PCR;” for “RT-PCR; specific protein expression by Western blot analysis;”, “^14H-inulin” for “^3H-inulin”
IC/PBS cells produce APF and as a result have a profound decrease in cell proliferation. […] Cells were treated with 1 nM D-proline APF twice weekly, and thymidine incorporation was determined at 9, 16, 23 and 30 days.
as §3

[5] = tested on: normal human bladder epithelial cells; experiment: 3H-thymidine incorporation into explanted normal human bladder epithelial cells; type: cell-based
Method: Cell proliferation was measured by ^3H-thymidine incorporation into explanted normal human bladder epithelial cells, as previously described (Keay et al., 2001; Keay et al., 2000; Keay et al., 2003a; Keay et al., 2003b; Keay et al., 1996). Briefly, purified native or synthetic APF (or the appropriate mock preparation) was diluted in serum-free MEM (containing only glutamine and antibiotics/antimycotics) and applied to the cells; cell controls received serum-free MEM alone. Cells were then incubated at 37° C. in a 5% CO2 atmosphere for 48 hours. The cells were then labeled with 1 μCi/well ^3H-thymidine for 4 hours, trypsinized, insoluble cell contents harvested and methanol-fixed onto glass fiber filter paper, and the amount of radioactivity incorporated determined. […]
The present example concerns exemplary comprehensive structure-activity relationship (SAR) studies on the peptide portion of antiproliferative factor (APF). […] Antiproliferative activity of each derivative was determined by inhibition of ^3H-thymidine incorporation in primary normal human bladder epithelial cells.
^3H-Thymidine Incorporation. […] The cell contents harvested and methanol-fixed onto glass fiber filter paper, and the amount of radioactivity incorporated determined. […]

[6] = listed as GalGalNAc-TV(D-proline)AAVVVA
[7] = listed as GalGalNAc-TV-(D-proline)-AAVVVA

For “GalGalNAc-TV(D-proline)AAVVVA [D-proline APF]”, the “paracellular permeability (14C-mannitol, 3H-inulin)” value (“paracellular permeability” for short) (IC/PBS cell monolayers) was “normalized; also recorded: significantly decreased paracellular permeability of both tracer molecules”, the “paracellular permeability” value (IC/PBS cell monolayers; [6]) was “decrease permeability of IC/PBS cells” and the “paracellular permeability” value (IC/PBS cell monolayers; listed as GalGalNAc-TV-(D-Proline)-AAVVVA) was “significantly decrease permeability of IC/PBS cells”. For the same substance, the “paracellular permeability” value (IC/PBS cell monolayers; [7]) was “normalize IC/PBS cell paracellular permeability”, the “tight junction protein mRNA expression” value [1] was “stimulation of tight junction protein expression; also recorded: stimulate mRNA expression for ZO-1, occludin, and specific claudin (1, 4, 8, and 12)” and the “tight junction protein mRNA expression” value [1, 6] was “significantly increase zonula occludens-1 and claudin 1, 4 and 8 expression”. The “tight junction protein mRNA expression” value [1, 7] was “significantly increased ZO-1, occludin, and claudin 1, 4, 8, and 12 expression”, the “tight junction protein expression and localization” value [2] was “also increased” and the “blocking of APF antiproliferative activity” value (shortened to “blocking”) [3] was “inhibited this activity in nanomolar concentrations in a dose-dependent manner”. For the same substance, the “blocking” value [3, 6] was “blocked APF activity”, the “blocking” value [3, 7] was “blocked APF antiproliferative activity; also recorded: blocks APF's inhibitory effects on cell proliferation” and the “stimulation of IC/PBS cell proliferation” value ([4]; 1 nM twice weekly, thymidine incorporation at 9, 16, 23 and 30 days (Example 14)) was “stimulated IC/PBS cell proliferation by Day 16”. The “effect on IC cell proliferation” value [4] was “significantly stimulated at both time points”, the “effect on IC cell proliferation” value ([4]; listed as APF proline) was “Optimal stimulation of IC cell proliferation was observed up to the level of normal bladder cell proliferation” and the antiproliferative activity ([5]; 3H-thymidine incorporation, normal bladder epithelial cells) was “did not have any intrinsic antiproliferative activity”. For the same substance, the “antiproliferative activity normalized to as-APF” value ([5]; inactive = no significant activity at <25 μM (cut-off limit of the assay)) was “inactive”.
